The source of these data is patent US20250171437A1 (Agios Pharmaceuticals,Inc., priority 2022, published 2025).

The target of the experiment is T1, human PAH with the R408W mutation (A375 R408W cells) (Homo sapiens, UniProt P00439, R408W).
T1 construct: expressed in transfected cells
T1 sequence (P00439 1-452 R408W): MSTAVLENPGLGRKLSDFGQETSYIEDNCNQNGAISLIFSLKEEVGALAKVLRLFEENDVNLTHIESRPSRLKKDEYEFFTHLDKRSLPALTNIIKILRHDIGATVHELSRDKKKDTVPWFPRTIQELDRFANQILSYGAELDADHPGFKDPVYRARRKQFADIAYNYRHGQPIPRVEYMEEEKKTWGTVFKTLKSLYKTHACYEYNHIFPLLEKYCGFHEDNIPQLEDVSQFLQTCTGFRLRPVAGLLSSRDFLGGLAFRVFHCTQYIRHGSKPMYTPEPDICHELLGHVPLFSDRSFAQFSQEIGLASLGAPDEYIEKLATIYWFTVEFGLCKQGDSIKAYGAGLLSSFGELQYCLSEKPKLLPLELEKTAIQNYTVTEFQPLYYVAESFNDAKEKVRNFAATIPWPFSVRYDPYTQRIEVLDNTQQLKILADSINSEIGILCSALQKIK
The experiment can be described thus: Cell Based Phenylalanine Flux Assay. As to conditions: A375 cells expressing R408W PAH; 24 hrs with compound, then 20 μM sepiapterin and 800 μM 13C9,15N-Phenylalanine for 4 hours; 13C-Tyrosine by LC-MS; average where tested multiple times. A digest of the protocol: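 Phenylalanine-to-tyrosine flux is measured in A375 cells carrying stable human R408W PAH. After 24 h compound exposure, 13C9,15N-Phe (800 μM) with sepiapterin (20 μM) is supplied for 4 h and media 13C-Tyr is read by LC-MS; AC50s are binned.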
As to `O=C(CCc1cncs1)N1CCc2[nH]cnc2C1c1nc2c(F)cccc2o1` (stereo not shown), the AC50 is at least 5 µM.
On to `O=C(CCc1nccs1)N1CCc2[nH]cnc2C1c1nc2ccc(F)cc2o1` (stereo not shown) [listing 1 of 2 here], for which the AC50 was at least 5 µM.
The same measure for `CC(C)(O)c1cc(C(=O)N2CCc3[nH]cnc3C2c2nc3c(F)cccc3o2)no1` (stereo not shown) [listing 1 of 2 here]: at least 5 µM; for `CC(C)(O)c1nc(C(=O)N2CCc3[nH]cnc3C2c2nc3c(F)cccc3o2)no1` (stereo not shown) [listing 1 of 2 here]: at least 5 µM; for `CC(C)(O)c1cc(C(=O)N2CCc3[nH]cnc3C2c2nc3ccc(F)cc3o2)no1` (stereo not shown) [listing 1 of 2 here]: at least 5 µM.
On to `CC(C)(O)c1nc(C(=O)N2CCc3[nH]cnc3C2c2nc3ccc(F)cc3o2)no1` (stereo not shown), for which the AC50 is at least 5 µM.
The result for `Cn1nc(C(F)F)nc1C(=O)N1CCc2[nH]cnc2C1c1nc2cc(F)ccc2o1` (stereo not shown) reads 1 to 5 µM; that for `Cc1nc(C(C)(C)O)oc1C(=O)N1CCc2[nH]cnc2C1c1nc2cc(F)ccc2o1` (stereo not shown) [listing 1 of 2 here], at least 5 µM; that for `O=C(c1nncn1C1CC1)N1CCc2[nH]cnc2C1c1nc2cc(F)ccc2o1` (stereo not shown) [listing 1 of 2 here], at least 5 µM.
Turning to `O=C(c1cnco1)N1CCc2[nH]cnc2C1c1nc2c(F)cccc2o1` (stereo not shown) [listing 1 of 2 here], the AC50 was at least 5 µM.
With `Cn1cnnc1C(=O)N1CCc2[nH]cnc2C1c1nc2c(F)cccc2o1` (stereo not shown), the AC50 fell in the range of 1 to 5 µM.
Regarding `O=C(c1cnco1)N1CCc2[nH]cnc2C1c1nc2c(F)cc(F)cc2o1` (stereo not shown) [listing 1 of 2 here], the AC50 is at least 5 µM.
For the compound `Cc1nc(-c2cnn(C)c2)oc1C(=O)N1CCc2[nH]cnc2C1c1nc2cc(F)ccc2o1` (stereo not shown) [listing 1 of 2 here], the AC50 was at least 5 µM.
`Cc1nc(-c2cnn(C)c2)sc1C(=O)N1CCc2[nH]cnc2C1c1nc2cc(F)ccc2o1` (stereo not shown): the AC50 is at least 5 µM.
Regarding `Cc1nnc(C(=O)N2CCc3[nH]cnc3C2c2nc3cc(F)ccc3o2)o1` (stereo not shown) [listing 1 of 2 here], the AC50 was at least 5 µM.
The same measure for `Cn1ncnc1C(=O)N1CCc2[nH]cnc2C1c1nc2ccc(F)cc2o1` (stereo not shown) [listing 1 of 2 here]: at least 5 µM; for `Cn1cnnc1C(=O)N1CCc2[nH]cnc2C1c1nc2ccc(F)cc2o1` (stereo not shown) [listing 1 of 2 here]: at least 5 µM.
For the compound `CN(C)Cc1ccc2c(C(=O)N3CCc4[nH]cnc4C3c3nc4cc(F)ccc4o3)cnn2c1` (stereo not shown) [listing 1 of 2 here], the AC50 was at least 5 µM.
In the case of `O=C(CCc1cnco1)N1CCc2[nH]cnc2C1c1nc2c(F)cccc2o1` (stereo not shown), the AC50 is 1 to 5 µM.
Consider `O=C(Cc1cnco1)N1CCc2[nH]cnc2C1c1nc2cc(F)ccc2o1` (stereo not shown), for which the AC50 was 1 to 5 µM.
On to `O=C(CCc1cncs1)N1CCc2[nH]cnc2C1c1nc2cc(F)ccc2o1` (stereo not shown), for which the AC50 is 1 to 5 µM.
`O=C(CCc1cnco1)N1CCc2[nH]cnc2C1c1nc2cc(F)ccc2o1` (stereo not shown): the AC50 lay in the range of 1 to 5 µM.
On to `O=C(CCc1ncco1)N1CCc2[nH]cnc2C1c1nc2cc(F)ccc2o1` (stereo not shown), for which the AC50 fell in the range of 1 to 5 µM.
Turning to `O=C(CCc1nccs1)N1CCc2[nH]cnc2C1c1nc2cc(F)ccc2o1` (stereo not shown), the AC50 fell in the range of 1 to 5 µM.
As to `O=C(CCc1ncco1)N1CCc2[nH]cnc2C1c1nc2ccc(F)cc2o1` (stereo not shown), the AC50 lay within 1 to 5 µM.
Regarding `O=C(CCc1cncs1)N1CCc2[nH]cnc2C1c1nc2ccc(F)cc2o1` (stereo not shown), the AC50 is 1 to 5 µM.
The same measure for `O=C(CCc1nccs1)N1CCc2[nH]cnc2C1c1nc2ccc(F)cc2o1` (stereo not shown) [listing 2 of 2 here]: 1 to 5 µM; for `O=C(CCc1cnco1)N1CCc2[nH]cnc2C1c1nc2ccc(F)cc2o1` (stereo not shown): 1 to 5 µM; for `O=C(CCc1cnco1)N1CCc2[nH]cnc2C1c1nc2cccc(F)c2o1` (stereo not shown): 1 to 5 µM.
As for `CC(C)(O)c1nc(C(=O)N2CCc3[nH]cnc3C2c2nc3c(F)cccc3o2)no1` (stereo not shown) [listing 2 of 2 here], the AC50 lay within 1 to 5 µM.
With `CC(C)(O)c1cc(C(=O)N2CCc3[nH]cnc3C2c2nc3c(F)cccc3o2)no1` (stereo not shown) [listing 2 of 2 here], the AC50 is 1 to 5 µM.
The same measure for `CC(C)(O)c1nc(C(=O)N2CCc3[nH]cnc3C2c2nc3cc(F)ccc3o2)no1` (stereo not shown): at least 5 µM; for `CC(C)(O)c1cc(C(=O)N2CCc3[nH]cnc3C2c2nc3ccc(F)cc3o2)no1` (stereo not shown) [listing 2 of 2 here]: 1 to 5 µM; for `CC(C)(O)c1cc(C(=O)N2CCc3[nH]cnc3C2c2nc3cccc(F)c3o2)no1` (stereo not shown): 1 to 5 µM.
For the compound `Cn1nc(C(F)F)nc1C(=O)N1CCc2[nH]cnc2C1c1nc2c(F)cccc2o1` (stereo not shown), the AC50 fell in the range of 1 to 5 µM.
Turning to `Cn1nc(C(F)F)nc1C(=O)N1CCc2[nH]cnc2C1c1nc2ccc(F)cc2o1` (stereo not shown), the AC50 was 1 to 5 µM.
On to `CC(C)(O)c1noc(C(=O)N2CCc3[nH]cnc3C2c2nc3c(F)cccc3o2)n1` (stereo not shown), for which the AC50 is at least 5 µM.
The same measure for `CC(C)(O)c1ncc(C(=O)N2CCc3[nH]cnc3C2c2nc3c(F)cc(F)cc3o2)o1` (stereo not shown): 1 to 5 µM; for `CC(C)(O)c1ncc(C(=O)N2CCc3[nH]cnc3C2c2nc3c(F)ccc(F)c3o2)o1` (stereo not shown): 1 to 5 µM.
For `Cc1nc(C(C)(C)O)oc1C(=O)N1CCc2[nH]cnc2C1c1nc2cc(F)ccc2o1` (stereo not shown) [listing 2 of 2 here], the half-maximal activity concentration (AC50) lay within 1 to 5 µM.
As to `CC(C)(O)c1noc(C(=O)N2CCc3[nH]cnc3C2c2nc3cc(F)ccc3o2)n1` (stereo not shown), the AC50 was at least 5 µM.
As for `CC(C)(O)c1nc(C(F)F)c(C(=O)N2CCc3[nH]cnc3C2c2nc3cc(F)c(F)cc3o2)o1` (stereo not shown), the AC50 fell in the range of 1 to 5 µM.
`CC(C)(O)c1noc(C(=O)N2CCc3[nH]cnc3C2c2nc3ccc(F)cc3o2)n1` (stereo not shown): the AC50 was at least 5 µM.
For the compound `CC(C)(O)c1noc(C(=O)N2CCc3[nH]cnc3C2c2nc3cccc(F)c3o2)n1` (stereo not shown), the AC50 fell in the range of 1 to 5 µM.
The result for `O=C(c1nncn1C1CC1)N1CCc2[nH]cnc2C1c1nc2ccc(F)cc2o1` (stereo not shown) reads 1 to 5 µM; that for `O=C(c1nncn1C1CC1)N1CCc2[nH]cnc2C1c1nc2cccc(F)c2o1` (stereo not shown), 1 to 5 µM.
Consider `O=C(c1nncn1C1CC1)N1CCc2[nH]cnc2C1c1nc2cc(F)ccc2o1` (stereo not shown) [listing 2 of 2 here], for which the AC50 lay in the range of 1 to 5 µM.
`O=C(c1nncn1C1CC1)N1CCc2[nH]cnc2C1c1nc2c(F)cccc2o1` (stereo not shown): the AC50 was in the range of 1 to 5 µM.
Consider `O=C(c1cnco1)N1CCc2[nH]cnc2C1c1nc2c(F)cccc2o1` (stereo not shown) [listing 2 of 2 here], for which the AC50 is 1 to 5 µM.
Regarding `O=C(c1nnc(-c2cn[nH]c2)o1)N1CCc2[nH]cnc2C1c1nc2c(F)cccc2o1` (stereo not shown), the AC50 was 1 to 5 µM.
In the case of `O=C(c1cnco1)N1CCc2[nH]cnc2C1c1nc2c(F)cc(F)cc2o1` (stereo not shown) [listing 2 of 2 here], the AC50 was 1 to 5 µM.
With `Cc1nc(-c2cnn(C)c2)oc1C(=O)N1CCc2[nH]cnc2C1c1nc2cc(F)ccc2o1` (stereo not shown) [listing 2 of 2 here], the AC50 lay in the range of 1 to 5 µM.
Consider `Cn1cnnc1C(=O)N1CCc2[nH]cnc2C1c1nc2cc(F)ccc2o1` (stereo not shown), for which the AC50 is 1 to 5 µM.
Regarding `O=C(c1nnc(-c2ccncc2)o1)N1CCc2[nH]cnc2C1c1nc2cc(F)ccc2o1` (stereo not shown), the AC50 is 1 to 5 µM.
Turning to `Cc1nnc(C(=O)N2CCc3[nH]cnc3C2c2nc3cc(F)ccc3o2)o1` (stereo not shown) [listing 2 of 2 here], the AC50 fell in the range of 1 to 5 µM.
With `Fc1ccc2oc(C3c4nc[nH]c4CCN3Cc3cnco3)nc2c1` (stereo not shown), the AC50 was at least 5 µM.
`Cn1ncnc1C(=O)N1CCc2[nH]cnc2C1c1nc2ccc(F)cc2o1` (stereo not shown) [listing 2 of 2 here]: the AC50 was in the range of 1 to 5 µM.
For `Cn1cnnc1C(=O)N1CCc2[nH]cnc2C1c1nc2ccc(F)cc2o1` (stereo not shown) [listing 2 of 2 here], the AC50 fell in the range of 1 to 5 µM.
`O=C(c1nnc(-c2cn[nH]c2)o1)N1CCc2[nH]cnc2C1c1nc2ccc(F)cc2o1` (stereo not shown): the half-maximal activity concentration (AC50) lay within 1 to 5 µM.
In the case of `O=C(c1nnc(-c2ccn[nH]2)o1)N1CCc2[nH]cnc2C1c1nc2ccc(F)cc2o1` (stereo not shown), the AC50 lay within 1 to 5 µM.
For `Cc1ccc2nc(C3c4nc[nH]c4CCN3C(=O)c3nnc(-c4cn[nH]c4)o3)oc2c1` (stereo not shown), the AC50 was 1 to 5 µM.
The result for `Cn1cnnc1C(=O)N1CCc2[nH]cnc2C1c1nc2cccc(F)c2o1` (stereo not shown) reads 1 to 5 µM.
Take `CN(C)Cc1ccc2c(C(=O)N3CCc4[nH]cnc4C3c3nc4cc(F)ccc4o3)cnn2c1` (stereo not shown) [listing 2 of 2 here]: the AC50 fell in the range of 1 to 5 µM.
With `CC(C)(O)c1nc(C(F)F)c(C(=O)N2CC3(CC3)c3[nH]cnc3C2c2nc3cc(F)ccc3o2)o1` (stereo not shown), the AC50 fell in the range of 1 to 5 µM.

One may read the AC50 as the concentration giving half of the maximal activity seen.
